Source: patent US20230218716A1, “COMPOSITIONS AND METHODS FOR TREATING ATRIAL FIBRILLATION” (Ohio State Innovation Foudation, priority 2020, published 2023)
Counter-ions that a name gives are not always drawn.

Assays:
[1] = cited from earlier work
[2] = system: Langendorff-perfused mouse hearts
Procedure: (§1) Langendorff preparations: For optical mapping and ex vivo electrocardiography (ECG) studies, hearts were perfused (at 40-55 mm Hg) in a Langendorff configuration with oxygenated, modified Tyrode's solution (containing, in mM: NaCl 140, KCl 5.4, MgCl2 0.5, dextrose 5.6, HEPES 10; pH adjusted to 7.4) at 37° C. as previously described (Veeraraghavan R, et al. Pflugers Arch. 2015 467:2093-2105; Veeraraghavan R, et al. Elife. 2018 7; Radwanski P B, et al. Cardiovascular research. 2015 106:143-52; Radwanski P B, et al. Heart rhythm. 2010 7:1428-35; Veeraraghavan R and Poelzing S. Cardiovascular research. 2008 77:749-56.
Optical Mapping and Volume-conducted Electrocardiography (ECG): Optical voltage mapping was performed using the voltage sensitive dye, di-4-ANEPPS (15 μM; ThermoFisher Scientific, Grand Island, N.Y.), as previously described (Veeraraghavan R, et al. Pflugers Arch. 2015 467:2093-2105; Veeraraghavan R, et al. Pflugers Arch. 2016 468:1651-61; Veeraraghavan R and Poelzing S. Cardiovascular research. 2008 77:749-56), in order to quantify conduction velocity. Motion was suppressed by adding blebbistatin (10 μM) to the perfusate. Preparations were excited by 510 nm light and fluorescent signals passed through a 610 nm longpass filter (Newport, Irvine, Calif.) and recorded at 1000 frames/sec using a MiCAM Ultima-L CMOS camera (SciMedia, Costa Mesa, Calif.). Activation time was defined as the time of the maximum first derivative of the AP (Girouard S D, et al. J Cardiovasc Electrophysiol. 1996 7:1024-38), and activation times were fitted to a parabolic surface (Bayly P V, et al. IEEE Trans Biomed Eng. 1998 45:563-71). Gradient vectors evaluated along this surface were averaged along the fast axis of propagation (±15°) to quantify CV.

murine atria [3] = settings: VEGF-treated vs. control
Source text: (§2) Cryopreservation: Hearts were embedded in optimal cutting temperature compound and frozen using liquid nitrogen for cryosectioning and fluorescent immunolabeling as in previous studies (Veeraraghavan R, et al. Pflugers Arch. 2015 467:2093-2105; Veeraraghavan R, et al. Pflugers Arch. 2016 468:1651-61; Veeraraghavan R, et al. Elife. 2018 7; Veeraraghavan R and Gourdie R. Molecular biology of the cell. 2016 27:3583-3590). These samples were used for light microscopy experiments as described below.
(§3) Fluorescent Immunolabeling: Immuno-fluorescent labeling of cryosections (5 μm thickness) of fresh-frozen myocardium was performed, as previously described (Veeraraghavan R, et al. Pflugers Arch. 2015 467:2093-2105; Veeraraghavan R, et al. Elife. 2018 7; Koleske M, et al. The Journal of general physiology. 2018; Radwanski P B, et al. JACC: Basic to Translational Science. 2016 1:251-266). Briefly, cryosections were fixed with paraformaldehyde (2%, 5 minutes at room temperature), permeabilized with Triton X-100 (0.2% in PBS for 15 minutes at room temperature) and treated with blocking agent (1% BSA, 0.1% triton in PBS for 2 hours at room temperature) prior to labeling with primary antibodies (overnight at 4° C.). Samples were then washed in PBS (3×5 minutes in PBS at room temperature) prior to labeling with secondary antibodies.
For confocal microscopy, samples were then labeled with goat anti-mouse and goat anti-rabbit secondary antibodies conjugated to Alexa 405, Alexa 488, Alexa 568 and Alexa 647 were used (1:8000; ThermoFisher Scientific, Grand Island, N.Y.). Simultaneous labeling with two rabbit or mouse primary antibodies was accomplished by direct fluorophore conjugation of primary antibodies (Zenon labeling kits, ThermoFisher Scientific, Grand Island, N.Y.). Samples were then washed in PBS (3×5 minutes in PBS at room temperature) and mounted in ProLong Gold (Invitrogen, Rockford, Ill.). For STimulated Emission Depletion (STED) microscopy, samples were prepared similar to confocal microscopy but labeled with Alexa 594 and Atto 647N fluorophores. […]

mouse hearts = settings: VEGF high dose (500 pg/ml) vs. untreated controls
Source text: Primary Antibodies: The following primary antibodies were used for Western immunoblotting and fluorescence microscopy studies: connexin43 (Cx43; rabbit polyclonal; Sigma C6219); connexin40 (Cx40; rabbit polyclonal; ThermoFisher Scientific 36-4900); N-cadherin (N-cad; mouse monoclonal; BD Biosciences 610920); cardiac isoform of the voltage-gated sodium channel (Nav1.5; rabbit polyclonal; custom antibody (Veeraraghavan R, et al. Elife. 2018 7)); and the sodium channel β subunit (β1; rabbit polyclonal; custom antibody (Veeraraghavan R, et al. Elife. 2018 7))
Western Immunoblotting: Whole cell lysates of mouse hearts frozen using liquid nitrogen were prepared as previously described (Veeraraghavan R, et al. Elife. 2018 7; Koleske M, et al. The Journal of general physiology. 2018; Struckman H L, et al. Microsc Microanal. 2020:1-9). These were electrophoresed on 4-15% TGX Stain-free gels (BioRad, Hercules, Calif.) before being transferred onto a nitrocellulose membrane. The membranes were probed with primary antibodies against Cx43, Cx40, Nav1.5 and […] as well as mouse monoclonal antibody against GAPDH (loading control; Fitzgerald Industries, Acton, Mass.), followed by goat anti-rabbit and goat anti-mouse HRP-conjugated secondary antibodies (Promega, Madison, Wis.). Signals were detected by chemiluminescence using SuperSignal West Femto Extended Duration Substrate (ThermoFisher Scientific, Grand Island, N.Y.) and imaged using a Chemidoc MP imager (BioRad, Hercules, Calif.).

[4] = system: Langendorff-perfused mouse hearts; settings: VEGF 500 pg/ml, perfused 60 minutes; vehicle 100±9%; n=3 hearts/group
Procedure: as §1

mice = settings: intraperitoneal VEGF 10 or 50 ng/kg; epinephrine 1.5 mg/kg and caffeine 120 mg/kg
Procedure: In vivo ECG: Continuous ECG recordings (PL3504 PowerLab 4/35, ADInstruments) were obtained from mice anesthetized with isoflurane (1-1.5%) as previously described (Koleske M, et al. The Journal of general physiology. 2018). Briefly, after baseline recording (5 min.), animals received either intraperitoneal VEGF (10 or 50 ng/kg; Sigma) or vehicle (PBS). After an additional 20 min, animals were injected intraperitoneally with epinephrine (1.5 mg/kg; Sigma) and caffeine (120 mg/kg; Sigma) challenge and ECG recording continued for 40 minutes. ECG recordings were analyzed using the LabChart 8 software (ADInstruments).

murine atria [5] = system: murine atria
Source text: as §2, §3
For confocal microscopy, samples were then labeled with goat anti-mouse and goat anti-rabbit secondary antibodies conjugated to Alexa 405, Alexa 488, Alexa 568 and Alexa 647 were used (1:8000; ThermoFisher Scientific, Grand Island, N.Y.). Simultaneous labeling with two rabbit or mouse primary antibodies was accomplished by direct fluorophore conjugation of primary antibodies (Zenon labeling kits, ThermoFisher Scientific, Grand Island, N.Y.). Samples were then washed in PBS (3×5 minutes in PBS at room temperature) and mounted in ProLong Gold (Invitrogen, Rockford, Ill.). For STimulated Emission Depletion (STED) microscopy, samples were prepared similar to confocal microscopy but labeled with Alexa 594 and Atto 647N fluorophores. For STochastic Optical Reconstruction Microscopy (STORM), samples were labeled with Alexa 647 and Biotium CF 568 fluorophores. STORM samples were then washed in PBS (3×5 minutes in PBS at room temperature) and optically cleared using Scale U2 buffer (48 hours at 4° C.) prior to imaging (Veeraraghavan R, et al. Pflugers Arch. 2016 468:1651-61; Veeraraghavan R, et al. Elife. 2018 7; Veeraraghavan R and Gourdie R. Molecular biology of the cell. 2016 27:3583-3590).
Single Molecule Localization: STORM imaging was performed using a Vutara 352 microscope (Bruker Nano Surfaces, Middleton, Wis.) equipped with biplane 3D detection, and fast sCMOS imaging achieving 20 nm lateral and 50 nm axial resolution, as previously described (Veeraraghavan R, et al. Elife. 2018 7; Veeraraghavan R and Gourdie R. Molecular biology of the cell. 2016 27:3583-3590; Struckman H L, et al. Microsc Microanal. 2020:1-9; Bonilla I M, et al. Sci Rep. 2019 9:10179). Individual fluorophore molecules were localized with a precision of 10 nm. The two-color channels were precisely registered using localized positions of several TetraSpeck Fluorescent Microspheres (ThermoFisher Scientific, Carlsbad, Calif.) scattered throughout the field of view, with the procedure being repeated at the start of each imaging session. Protein clustering and spatial organization were quantitatively assessed from single molecule localization data using STORM-RLA, a machine learning-based cluster analysis approach, as previously described (Veeraraghavan R and Gourdie R. Molecular biology of the cell. 2016 27:3583-3590).

murine atria [6] = system: murine atria; remark: listed apart in the source
Procedure: Fixation for Transmission Electron Microscopy (TEM): Atria were dissected and fixed overnight in 2% glutaraldehyde at 4° C. for resin embedding and ultramicrotomy as previously described (Veeraraghavan R, et al. Pflugers Arch. 2015 467:2093-2105; Veeraraghavan R, et al. Elife. 2018 7).
Transmission Electron Microscopy (TEM): TEM images of the ID, particularly gap junctions (GJs) and mechanical junctions (MJs), were obtained at 60,000× magnification on a FEI Tecnai G2 Spirit electron microscope. Intermembrane distance at various ID sites was quantified using ImageJ (NIH), as previously described (Veeraraghavan R, et al. Pflugers Arch. 2015 467:2093-2105; Veeraraghavan R, et al. Elife. 2018 7).

[7] = both low (100 pg/ml) and high (500 pg/ml) doses vs. untreated controls

Compound: O[C@H](c1cc(C(F)(F)F)nc2c(C(F)(F)F)cccc12)[C@@H]1CCCCN1 (relative stereo) [Mefloquine hydrochloride, (R*,S*)-(±)-alpha-2-piperidinyl-2,8-bis(trifluoromethyl)-4-quinolinemethanol]
- Solubility in ethanol ([1]; ethanol): soluble
- Solubility in water ([1]; water): slightly soluble

Compound: VEGF
- P wave duration ([2]; 30 minutes of VEGF perfusion (100 and 500 pg/ml) vs. untreated control): significant P-wave prolongation
- Incidence of burst pacing-induced atrial arrhythmias ([2]; VEGF 100 and 500 pg/ml, 30 minutes, 10 s burst pacing at 50, 40, 30 ms): increased the incidence of burst pacing-induced atrial arrhythmias in dose-dependent fashion
- Atrial conduction velocity ([2]; VEGF 100 and 500 pg/ml, 30 minutes, paced at cycle length 100 ms): significantly and dose-dependently decreased
- Nav1.5 enrichment ratio near Cx43 (STED) (murine atria [3]; <100 nm from Cx43): significantly decreased
- β1 enrichment ratio near Cx43 (STED) (murine atria [3]; <100 nm from Cx43): significantly decreased
- Nav1.5 enrichment ratio at N-cad-rich sites (STED) (murine atria [3]): trended towards a decrease
- Expression level of Cx43 (mouse hearts): no significant difference
- Expression level of N-cad (mouse hearts): no significant difference
- Expression level of Nav1.5 (mouse hearts): no significant difference
- Expression level of β1 (mouse hearts): no significant difference
- Expression of Cx40 (mouse hearts): slightly elevated
- Levels of FITC-dextran extravasated relative to vehicle controls [4]: 201±7%
- Atrial arrhythmias in vivo after caffeine and epinephrine challenge (mice): elicited atrial arrhythmias in VEGF-treated mice but not in untreated controls
- β1 density at N-cad-rich plicate ID sites (murine atria [5]; VEGF treated hearts vs. control): without significant changes
- Nav1.5 enrichment ratio at N-cad-rich plicate ID sites (murine atria [5]; VEGF treated hearts, control 6.5±0.4): 4.6±0.4
- Nav1.5 enrichment ratio at Cx43-adjacent perinexal sites (murine atria [5]; VEGF treated hearts, control 10.5±0.3): 6.9±0.8
- β1 enrichment ratio at Cx43-adjacent perinexal sites (murine atria [5]; VEGF treated hearts, control 10.7±1.9): 5.4±0.7
- % of ID-localized Nav1.5 signal at N-cad-rich plicate ID sites (murine atria [5]; VEGF treated hearts, control 35±2%): 26±3%
- % of ID-localized Nav1.5 signal at Cx43-adjacent perinexal sites (murine atria [5]; VEGF treated hearts, control 59±2%): 32±3%
- % of ID-localized β1 signal at Cx43-adjacent perinexal sites (murine atria [5]; VEGF treated hearts, control 69±4%): 49±3%
- Intermembrane distance at GJ-adjacent sites (murine atria [6]; [7]): significantly increased
- Intermembrane distance at MJ-adjacent sites (murine atria [6]; [7]): significantly increased
- Dose dependence of ID swelling (murine atria [6]; low vs. high dose of VEGF): dose-dependent fashion at GJ-adjacent perinexi but not near MJ
